Test results: ChEMBL document CHEMBL1201862, “PubChem BioAssay data set” (2004)
The source made the active and inactive calls.

Columns and labels:
[1] = molecular target: T1, Endoribonuclease toxin MazF (Escherichia coli K-12, UniProt P0AE70); assay: activation of MazEF endoribonuclease cleavage – biochemical, fluorescence, single-stranded RNA substrate, uHTS hits, dose response (AID 588481); type: functional
T1 sequence (P0AE70 whole entry): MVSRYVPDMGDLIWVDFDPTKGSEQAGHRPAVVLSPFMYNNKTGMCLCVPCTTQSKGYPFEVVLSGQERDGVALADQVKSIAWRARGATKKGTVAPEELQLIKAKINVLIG

[2] = molecular target: T1, Endoribonuclease toxin MazF; assay: MazEF toxin-antitoxin RNase activation – biochemical, fluorescence, single-stranded RNA substrate, SAR follow-up (AID 588603); type: functional
[3] = molecular target: T1, Endoribonuclease toxin MazF; assay: substrate-only fluorescence increase artefacts – biochemical, single-stranded RNase substrate, counter-screen for MazEF activator project, dose response (AID 588502); type: functional
[4] = molecular target: T1, Endoribonuclease toxin MazF; assay: SAR analysis of small molecule activators of the MazEF TA System via a fluorescence-based single-stranded RNase assay counterscreen. [Related pubchem assays (depositor defined):AID504720, AID504743]; type: functional
[5] = system: MEF; assay: SAR analysis of small molecule cytotoxicity of MazEF TA System activators in embryonic fibroblast (MEF) cells. [Related pubchem assays (depositor defined):AID504720, AID504743]; type: functional; settings: Mus musculus
[6] = THP-1 cell cytotoxicity, cytotoxicity control, set 6 (AID 602433); type: functional; settings: Mycobacterium tuberculosis
[7] = viability loss in Vero cells – cell-based, purified and synthesized samples, set 8, cytotoxicity control for M. tuberculosis inhibitor project (AID 602431); type: functional; settings: Mycobacterium tuberculosis
[8] = molecular target: Beta Lactamase (Pseudomonas aeruginosa, UniProt Q932Y6); assay: BLA reporter interference, concentration series – BLA reporter cells, FRET fluorescence, artefact control for TLR9-MyD88 binding inhibitor project, dose response (AID 588341); type: cell-based;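 note: cell based assay in CHO-K1 cells stably expressing beta-lactamase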
Beta Lactamase, sequence (Q932Y6 whole entry, the tested form may be a part): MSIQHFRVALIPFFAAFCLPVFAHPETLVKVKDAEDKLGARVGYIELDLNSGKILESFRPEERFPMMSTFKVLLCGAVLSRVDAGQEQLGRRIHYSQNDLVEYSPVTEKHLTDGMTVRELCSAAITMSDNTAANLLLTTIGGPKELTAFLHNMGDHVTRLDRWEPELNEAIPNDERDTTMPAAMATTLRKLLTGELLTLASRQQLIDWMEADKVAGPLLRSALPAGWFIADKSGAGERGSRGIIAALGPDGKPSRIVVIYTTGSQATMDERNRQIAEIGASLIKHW

[9] = system: CHO; assay: CHO cell viability loss, potency – luminescence, cytotoxicity control for TLR9-MyD88 binding inhibitor project, dose response (AID 588339); type: functional, cell-based, hamster; settings: Cricetulus griseus;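 note: CHO cells stably coexpressing TLR9 and MyD88 fusions from primary screen; compound exposure lasted 48 hours before viability readout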
[10] = molecular target: T2, Sentrin-specific protease 8 (Homo sapiens, UniProt Q96LD8); assay: inhibition of human SENP8 cleavage activity – biochemical, luminescence, SAR follow-up (AID 504501); type: functional
T2 sequence (Q96LD8 whole entry): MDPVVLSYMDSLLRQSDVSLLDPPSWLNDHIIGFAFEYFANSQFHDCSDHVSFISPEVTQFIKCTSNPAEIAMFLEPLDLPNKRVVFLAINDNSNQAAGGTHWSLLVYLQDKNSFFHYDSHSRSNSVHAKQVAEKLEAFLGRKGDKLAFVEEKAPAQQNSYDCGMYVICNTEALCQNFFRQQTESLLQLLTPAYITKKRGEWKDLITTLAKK

[11] = molecular target: T3, Sentrin-specific protease 6 (Homo sapiens, UniProt Q9GZR1); assay: SAR Analysis of small molecule inhibitors of Sentrin-specific protease 6 (SENP6) using a Luminescent assay. [Related pubchem assays (depositor defined):AID2582, AID2599]; type: functional
T3 sequence (Q9GZR1 whole entry): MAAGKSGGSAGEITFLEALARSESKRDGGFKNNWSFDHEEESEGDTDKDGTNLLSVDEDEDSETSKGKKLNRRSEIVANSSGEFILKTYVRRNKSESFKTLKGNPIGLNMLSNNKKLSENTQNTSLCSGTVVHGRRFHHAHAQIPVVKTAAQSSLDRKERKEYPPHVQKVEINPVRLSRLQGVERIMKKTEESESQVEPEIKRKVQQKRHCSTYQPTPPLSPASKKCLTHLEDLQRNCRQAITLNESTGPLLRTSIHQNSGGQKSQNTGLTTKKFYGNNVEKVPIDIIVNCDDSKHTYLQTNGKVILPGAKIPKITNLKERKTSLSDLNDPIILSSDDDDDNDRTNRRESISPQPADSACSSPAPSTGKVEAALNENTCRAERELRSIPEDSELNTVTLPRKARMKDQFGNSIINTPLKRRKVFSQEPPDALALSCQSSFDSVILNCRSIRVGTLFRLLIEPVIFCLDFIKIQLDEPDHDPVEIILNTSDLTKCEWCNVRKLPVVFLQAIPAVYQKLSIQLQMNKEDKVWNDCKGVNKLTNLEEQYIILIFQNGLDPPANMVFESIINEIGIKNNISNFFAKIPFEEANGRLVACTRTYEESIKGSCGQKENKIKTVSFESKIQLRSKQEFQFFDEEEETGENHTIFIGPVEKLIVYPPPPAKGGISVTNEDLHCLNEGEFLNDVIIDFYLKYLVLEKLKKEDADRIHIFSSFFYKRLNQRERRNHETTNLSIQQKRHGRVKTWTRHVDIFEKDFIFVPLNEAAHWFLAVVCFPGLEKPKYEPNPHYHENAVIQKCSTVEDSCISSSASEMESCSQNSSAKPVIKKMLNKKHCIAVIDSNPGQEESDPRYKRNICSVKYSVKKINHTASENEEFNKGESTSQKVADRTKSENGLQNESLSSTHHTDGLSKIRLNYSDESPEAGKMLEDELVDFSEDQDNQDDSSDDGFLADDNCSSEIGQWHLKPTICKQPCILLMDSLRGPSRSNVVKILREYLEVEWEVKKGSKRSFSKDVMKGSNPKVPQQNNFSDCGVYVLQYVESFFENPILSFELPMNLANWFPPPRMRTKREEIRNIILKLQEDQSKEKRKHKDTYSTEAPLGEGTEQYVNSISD

[12] = molecular target: T4, Sentrin-specific protease 7 (Homo sapiens, UniProt Q9BQF6); assay: inhibition of human SENP7 cleavage activity – biochemical, luminescence, SAR follow-up (AID 504497); type: functional
T4 sequence (Q9BQF6 whole entry): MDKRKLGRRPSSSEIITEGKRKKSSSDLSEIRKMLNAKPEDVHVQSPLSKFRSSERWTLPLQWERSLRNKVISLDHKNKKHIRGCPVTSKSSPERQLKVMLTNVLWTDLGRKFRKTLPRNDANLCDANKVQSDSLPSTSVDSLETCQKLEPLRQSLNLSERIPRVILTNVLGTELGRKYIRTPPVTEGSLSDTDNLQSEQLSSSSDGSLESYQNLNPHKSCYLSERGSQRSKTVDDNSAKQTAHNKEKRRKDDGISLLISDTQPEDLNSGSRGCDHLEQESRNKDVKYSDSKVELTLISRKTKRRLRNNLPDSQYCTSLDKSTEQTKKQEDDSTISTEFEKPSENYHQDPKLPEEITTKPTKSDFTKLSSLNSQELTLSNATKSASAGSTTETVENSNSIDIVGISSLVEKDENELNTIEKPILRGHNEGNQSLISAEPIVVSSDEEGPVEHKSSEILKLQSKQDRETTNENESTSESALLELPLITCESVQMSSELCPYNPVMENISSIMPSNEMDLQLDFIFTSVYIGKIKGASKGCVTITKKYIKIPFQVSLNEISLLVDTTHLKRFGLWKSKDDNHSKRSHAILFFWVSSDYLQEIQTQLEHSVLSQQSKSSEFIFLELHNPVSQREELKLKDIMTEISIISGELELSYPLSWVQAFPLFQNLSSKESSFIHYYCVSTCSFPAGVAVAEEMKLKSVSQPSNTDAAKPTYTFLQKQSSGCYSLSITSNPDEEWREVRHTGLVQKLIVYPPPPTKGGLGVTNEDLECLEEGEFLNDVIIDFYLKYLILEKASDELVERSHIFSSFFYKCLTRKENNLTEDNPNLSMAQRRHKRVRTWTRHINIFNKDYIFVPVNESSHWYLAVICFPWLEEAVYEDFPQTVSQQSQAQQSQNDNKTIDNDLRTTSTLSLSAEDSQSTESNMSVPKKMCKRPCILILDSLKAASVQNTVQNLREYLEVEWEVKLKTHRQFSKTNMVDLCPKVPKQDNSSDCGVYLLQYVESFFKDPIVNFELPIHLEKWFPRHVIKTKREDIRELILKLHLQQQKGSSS

[13] = molecular target: T5, Caspase-3 (Homo sapiens, UniProt P42574); assay: SAR Analysis of small molecule inhibitors of Sentrin-specific proteases (SENPs) using a Caspase-3 Selectivity assay. [Related pubchem assays (depositor defined):AID2540, AID2599, AID434973, AID489001]; type: functional
T5 sequence (P42574 whole entry): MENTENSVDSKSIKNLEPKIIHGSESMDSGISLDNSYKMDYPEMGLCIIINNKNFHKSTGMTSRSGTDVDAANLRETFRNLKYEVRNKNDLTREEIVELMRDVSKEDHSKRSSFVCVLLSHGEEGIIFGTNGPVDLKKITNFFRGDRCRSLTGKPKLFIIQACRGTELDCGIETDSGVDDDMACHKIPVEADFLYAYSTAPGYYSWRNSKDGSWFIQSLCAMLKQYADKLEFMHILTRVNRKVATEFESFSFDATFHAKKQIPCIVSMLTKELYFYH

[14] = (§1) Counterscreen for antagonists of the orexin 1 receptor (OX1R; HCRTR1): Fluorescence-based cell-based high throughput dose response assay to identify antagonists of the parental CHO cell line. [Related pubchem assays (depositor defined):AID434989, AID435008, AID463079, AID485270, AID492963, AID492964, AID492965, AID493232, AID504699, AID504701]; type: functional
[15] = system: CHO-K1; assay: as §1, with “Homogeneous time resolved fluorescence (HTRF)-based” for “Fluorescence-based”, “cell-based” for “cell-based high throughput”, “CHO-K1” for “CHO”; type: functional; settings: Cricetulus griseus;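 note: potency for inhibition of ATP-stimulated IP1 production as antagonists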
[16] = molecular target: T6, Orexin/Hypocretin receptor type 1 (Homo sapiens, UniProt O43613); assay: (§2) Fluorescence-based cell-based high throughput dose response assay for antagonists of the orexin 1 receptor (OX1R; HCRTR1). [Related pubchem assays (depositor defined):AID434989, AID435008, AID463079, AID485270, AID492963, AID492964, AID492965, AID493232, AID504717, AID504718]; type: functional
T6 sequence (O43613 whole entry): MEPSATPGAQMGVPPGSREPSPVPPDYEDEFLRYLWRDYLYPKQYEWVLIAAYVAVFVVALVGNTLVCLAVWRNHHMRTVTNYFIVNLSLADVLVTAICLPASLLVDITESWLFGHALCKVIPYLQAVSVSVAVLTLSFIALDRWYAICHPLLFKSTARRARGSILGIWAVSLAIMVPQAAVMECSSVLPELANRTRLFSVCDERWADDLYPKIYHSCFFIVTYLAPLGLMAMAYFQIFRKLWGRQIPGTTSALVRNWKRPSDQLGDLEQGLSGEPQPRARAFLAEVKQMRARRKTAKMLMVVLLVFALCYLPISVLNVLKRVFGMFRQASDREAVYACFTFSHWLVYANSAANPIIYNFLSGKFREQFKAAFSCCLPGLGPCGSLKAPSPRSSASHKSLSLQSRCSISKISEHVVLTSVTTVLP

[17] = molecular target: T7, Orexin receptor type 2 (Homo sapiens, UniProt O43614); assay: Counterscreen assay for antagonists of the orexin 1 receptor (OX1R; HCRTR1): Homogeneous Time Resolved Fluorescence (HTRF)-based cell-based dose response assay for antagonists of the orexin 2 receptor (OX2R; HCRTR2), run by assay provider.; type: functional
T7 sequence (O43614 whole entry): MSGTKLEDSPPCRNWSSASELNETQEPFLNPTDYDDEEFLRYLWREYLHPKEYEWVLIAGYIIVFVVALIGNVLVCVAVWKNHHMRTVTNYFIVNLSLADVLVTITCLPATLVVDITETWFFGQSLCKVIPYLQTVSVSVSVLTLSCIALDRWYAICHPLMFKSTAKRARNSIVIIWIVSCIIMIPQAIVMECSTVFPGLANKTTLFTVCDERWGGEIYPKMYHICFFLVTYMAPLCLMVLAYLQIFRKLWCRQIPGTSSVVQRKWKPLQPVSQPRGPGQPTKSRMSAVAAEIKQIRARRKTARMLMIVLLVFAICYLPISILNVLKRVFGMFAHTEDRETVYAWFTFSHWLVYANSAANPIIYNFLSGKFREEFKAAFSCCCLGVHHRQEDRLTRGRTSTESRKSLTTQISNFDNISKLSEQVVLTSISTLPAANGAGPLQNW

[18] = molecular target: T6, Orexin/Hypocretin receptor type 1; assay: as §2, with “Homogeneous Time Resolved Fluorescence (HTRF)-based” for “Fluorescence-based”; type: functional
[19] = molecular target: T7, Orexin receptor type 2; assay: Counterscreen assay for antagonists of the orexin 1 receptor (OX1R; HCRTR1): Fluorescence-based cell-based dose response assay for antagonists of the orexin 2 receptor (OX2R; HCRTR2), run by assay provider.; type: functional
[20] = molecular target: DNA dC->dU-editing enzyme APOBEC-3G (Homo sapiens, UniProt Q9HC16); assay: inhibition of APOBEC3G ssDNA deamination – biochemical, fluorescence, single-stranded DNA substrate, SAR follow-up (AID 602136); type: functional; settings: read-out: IC50_Mean
DNA dC->dU-editing enzyme APOBEC-3G, sequence (Q9HC16 whole entry): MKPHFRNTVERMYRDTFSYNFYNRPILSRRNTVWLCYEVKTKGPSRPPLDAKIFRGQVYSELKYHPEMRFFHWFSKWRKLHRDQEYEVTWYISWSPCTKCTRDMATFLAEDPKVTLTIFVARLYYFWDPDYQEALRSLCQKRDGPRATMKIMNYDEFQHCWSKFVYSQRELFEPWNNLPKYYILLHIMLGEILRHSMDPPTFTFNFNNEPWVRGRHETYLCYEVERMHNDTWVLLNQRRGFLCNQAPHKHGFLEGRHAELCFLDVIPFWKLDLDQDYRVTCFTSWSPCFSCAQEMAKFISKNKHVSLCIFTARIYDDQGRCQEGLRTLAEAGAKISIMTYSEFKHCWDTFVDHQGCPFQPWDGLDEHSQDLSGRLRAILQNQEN

[21] = molecular target: DNA dC->dU-editing enzyme APOBEC-3A (Homo sapiens, UniProt P31941); assay: SAR analysis of small molecule inhibitors of APOBEC3A DNA Deaminase via a fluorescence-based single-stranded DNA deaminase assay.; type: functional; settings: read-out: IC50_Mean
DNA dC->dU-editing enzyme APOBEC-3A, sequence (P31941 whole entry): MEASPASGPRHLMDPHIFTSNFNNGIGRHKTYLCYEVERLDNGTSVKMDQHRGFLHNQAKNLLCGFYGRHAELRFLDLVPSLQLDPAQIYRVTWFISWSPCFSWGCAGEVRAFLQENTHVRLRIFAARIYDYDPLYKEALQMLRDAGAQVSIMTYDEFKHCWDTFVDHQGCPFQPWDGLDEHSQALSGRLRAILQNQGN

[22] = molecular target: T8, High affinity choline transporter 1 (Homo sapiens, UniProt Q9GZV3); assay: human choline transporter potentiators, potency – cell-based, 10-point CRC, membrane potential dye, dose response (AID 602376); type: functional
T8 sequence (Q9GZV3 whole entry): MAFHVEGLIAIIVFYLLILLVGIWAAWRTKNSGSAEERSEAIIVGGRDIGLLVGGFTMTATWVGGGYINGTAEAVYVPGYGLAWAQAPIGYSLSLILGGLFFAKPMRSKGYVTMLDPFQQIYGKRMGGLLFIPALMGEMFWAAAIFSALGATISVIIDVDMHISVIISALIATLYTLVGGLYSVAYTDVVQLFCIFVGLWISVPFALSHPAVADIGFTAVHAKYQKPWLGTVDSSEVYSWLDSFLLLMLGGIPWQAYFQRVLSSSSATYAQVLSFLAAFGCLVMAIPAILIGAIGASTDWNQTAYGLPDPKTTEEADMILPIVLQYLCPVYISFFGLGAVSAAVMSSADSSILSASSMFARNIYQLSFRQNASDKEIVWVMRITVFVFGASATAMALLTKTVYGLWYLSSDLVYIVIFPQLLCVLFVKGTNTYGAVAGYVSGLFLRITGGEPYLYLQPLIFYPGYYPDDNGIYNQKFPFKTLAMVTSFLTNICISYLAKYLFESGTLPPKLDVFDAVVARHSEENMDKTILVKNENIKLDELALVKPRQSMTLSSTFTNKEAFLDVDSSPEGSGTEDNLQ

[23] = molecular target: Troponin, cardiac muscle (Homo sapiens, UniProt P19429+P45379+P63316); assay: Fluorescence-based biochemical high throughput dose response assay for activators of the calcium sensitivity of cardiac Regulated Thin Filaments (RTF). [Related pubchem assays (depositor defined):AID493008, AID493018, AID504382, AID504383]; type: protein-complex assay

## N=c1c2c(ncn1CCCO)Oc1cc(O)ccc1C2c1ccccc1 (stereo not drawn)
[1]
  EC50: 6.82 µM (active)
[2]
  EC50: 6.2 µM (active)
[3]
  EC50: > 99 µM (inactive)
[4]
  EC50: 78.8 µM (inactive)
[5]
  CC50: > 99 µM (inactive)

## CC1CCCN(c2c(NCc3ccc(C(=O)N4CC=C(c5ccccc5)CC4)cc3)c(=O)c2=O)C1 (stereo not drawn)
[6]
  CC50: 17.4 µM (active)
[7]
  CC50: 67.2 µM (active)

## CCN(CC)c1ccc(/C=C/C(=O)C2C(=O)C=C(C)OC2=O)cc1 (stereo not drawn)
[8]
  IC50: 4.88 µM (active)
[9]
  IC50: > 49.7 µM (inactive)

## Oc1ccc(Cl)cc1/C=N/Nc1cc(N2CCCC2)nc(N2CCCC2)n1
[10]
  IC50: > 99 µM (inactive)
[11]
  IC50: > 99 µM (inactive)
[12]
  IC50: > 99 µM (inactive)
[13]
  IC50: > 99 µM (inactive)

## CCOc1ccccc1N1CCN(C(=O)c2ccc(S(=O)(=O)Nc3ccccc3)cc2)CC1
[14]
  IC50: 25.6 µM (inactive)
[15]
  IC50: > 66.2 µM (inactive)
[16]
  IC50: 15.1 µM (inactive)
[17]
  IC50: > 50 µM (inactive)
[18]
  IC50: 1.12 µM (active)
[19]
  IC50: 42.5 µM (inactive)

## O=C(CCN1CCSC1=O)Nc1cc(Cl)ccc1N1CCOCC1
[20]
  IC50: > 99 µM (inactive)
[21]
  IC50: > 99 µM (inactive)

## CC(C)CN1CCN(Cc2cccn2-c2ccc(Cl)cn2)CC1CCO (stereo not drawn)
[22]
  EC50: 8.24 µM (active)
[23]
  EC50: > 71.5 µM (inactive)
